{"source": "patent US10246498B2", "about": "“Genetically encoded histone reporter allele constructs” (THE JOHNS HOPKINS UNIVERSITY, priority 2014, dated 2019)", "key": {"genome-wide H3K4me3": {"tested_on": "genome-wide H3K4me3", "assay": "ChIP-seq of H3K4me3 in spleen cells of treated mice", "format": "in vivo, mouse", "conditions": "10 mg/kg/day, spleen cells of Kmt2d+/βGeo mice", "method": "Spleens were dissected from eight mice, four from each kmt2d genotype (+/βGeo or +/+) where half of each genotype was treated with AR-42 and half with vehicle only. Spleens were minced and passed through a 40 μm cell strainer to obtain single cell suspensions. 10 million cells were used for each ChIP-seq experiment following the native chromatin immunoprecipitation protocol, as previously described (Gilfillan et al. (2012) BMC Genomics 13:645), using a ChIP-grade antibody against H3K4me3 (9727, Cell Signaling Technology, Beverly, Mass.).\nSequencing was performed using a MiSeq system (Illumina, San Diego, Calif.). 4.8-9.6 million paired-end 26 bp reads were obtained per sample (Table 1; nReads=number of reads, alignRate=fraction aligned to genome; FRIP=fraction of reads in peaks). Reads were aligned to the m. musculus genome, version mm10, using Bowtie 2 (Langmead and Salzberg (2012) Nat. Methods. 9: 357-9). Each sample was examined with regard to alignment rate as well as FRIP (fraction of reads in peaks), a measure of the ChIP efficiency (Table 1). […] For analysis, reads were merged into one meta-sample and peak calling was performed using MACS version 1.4.2 (Zhang et al. (2008) Genome Biol. 9: R137). […] This created a peak by sample matrix of read counts. […] Fold change and overall abundance was calculated as per edgeR. […]"}, "[1]": {"tested_on": "DCX positive cells in the GCL", "assay": "Doublecortin (DCX) expression in the GCL (neurogenesis) after oral AR-42", "format": "in vivo, mouse", "description": "Kmt2d^+/βGeo mice, also named Mll2Gt^(RRt024)Byg, were acquired from Bay Genomics (University of California). All experimental mice were on a mixed C57BL/6J and 129/SvEv background. Expected Mendelian ratios were observed when heterozygous animals were bred to wild-type. In heterozygous crosses, however, there was uniform embryonic lethality of homozygotes by ED12, the earliest developmental stage assayed. For treatment with AR-42, mice were orally gavaged daily with drug (Selleck Chemicals, Houston, Tex.) solubilized in vehicle (0.5% methylcellulose, 0.1% Tween-80, water) or with vehicle alone. Drug delivery information was kindly provided by Drs. Chen and Kulp from Ohio State University (Huang et al. (2011) Mol. Pharmacol. 79:197-20619). Drug was administered for 14 days and mice were sacrificed on day 15. Morris water maze testing was initiated at day 7 and a dose of 10 mg/kg/day was used for these studies. For quantification of DCX positive cells, doses of 0, 5, 10 and 25 mg/kg/day were used. Genotyping was performed using primers B-GeoF-([…]; SEQ ID NO: 1) and B-GeoR-([…]; SEQ ID NO: 2) that are specific for the targeted allele and TcrdF-([…]; SEQ ID NO: 3) and TcrdR-([…]; SEQ ID NO: 4) that control for sufficient DNA concentration. Real-time PCR using the same primers allows discrimination between the heterozygous and homozygous state for the targeted allele. Maxillary protrusion was evaluated by ten investigators blinded to genotype and they were asked to rate maxillary protrusion on radiographs as either large (2) or small (1). […] All experiments were performed using mouse protocols approved by the Animal Care and Committee of Johns Hopkins University School of Medicine. The mouse protocols used for this study are in accordance with the guidelines used by the NIH for mouse care and handling.\nEvery 6th brain section was selected and then blocked with 5% Bovine Serum Albumin (BSA) at room temperature followed by incubation with primary antibodies overnight at 4° C. Secondary antibodies were then applied for 1 hour at room temperature, after which sections were mounted onto microscope slides with Vectamount with DAPI (Vector Laboratories, Burlingame, Calif.). Primary antibodies included Doublecortin (DCX) (SC-8066, Santa Cruz Biotechnology, Dallas, Tex., 1:200 goat), trimethylated H3K4 (9727L, Cell Signaling Technology, Beverly, Mass., 1:500 rabbit), and Kmt2d H-300 (SC-292359, Santa Cruz Biotechnology, Dallas, Tex., 1:500 rabbit). Non-specific binding was not observed when sections were sequentially exposed to serum (or IgG when appropriate) from the same species as the primary antibody for each experiment (i.e. rabbit for KMT2D and H3K4me3 and goat for doublecortin), followed by the secondary antibody used for KMT2D and H3K4me3 (anti-rabbit) or doublecortin (anti-goat, FIG. 29).\nThe area of both the GCL and DCX+ cells was measured using the NS elements 2.0 software (Nikon, Tokyo, JPN). Normalized DCX area was calculated by measuring the DCX+ area of the GCL and setting the baseline (Kmt2d^+/+) fraction to 1. A Student t-test with significance value set at P<0.05 was used for comparison of DCX+ area referenced to GCL area between genotypes and treatment arms."}}, "note": "“Also recorded” adds a separate entry of the source.", "data": [{"smiles": "CC(C)[C@H](C(=O)Nc1ccc(C(=O)NO)cc1)c1ccccc1", "note": "[AR-42]", "values": [{"measurement": "genome-wide deficiency of H3K4me3 (ChIP-seq)", "setting": "genome-wide H3K4me3", "result": "genome-wide increase in H3K4me3; also recorded: overcorrection; also recorded: improved; also recorded: recovered; also recorded: normalized (but somewhat over corrected)"}, {"measurement": "DCX expression", "setting": "[1]; 10 mg/kg/day, older (5-6 months) Kmt2d+/βGeo mice", "result": "improved"}, {"measurement": "DCX expression", "setting": "[1]; 25 mg/kg/day, Kmt2d+/+ animals", "result": "reduced DCX expression"}, {"measurement": "DCX expression", "setting": "[1]; 25 mg/kg/day, Kmt2d+/βGeo mice", "result": "did not improve DCX expression"}, {"measurement": "DCX expression in the GCL", "setting": "[1]; 25 mg/kg/day, young (1-2 month) and old (5-6 month) mice, both genotypes", "result": "decreased DCX expression"}, {"measurement": "neurogenesis (normalized DCX expression)", "setting": "[1]; 5 and 10 mg/kg/day, 1-2 month old Kmt2d+/βGeo mice", "result": "dose-dependent increase in neurogenesis"}, {"measurement": "DCX expression", "setting": "[1]; 5 and 10 mg/kg/day, Kmt2d+/+ or Kmt2d+/βGeo, both age groups", "result": "preservation or restoration of DCX expression"}]}]}
